Data from patent US20130130306A1, “ZN (II) BASED COLORIMETRIC SENSOR AND PROCESS FOR THE PREPARATION THEREOF” (COUNCIL OF SCIENTIFIC & INDUSTRIAL RESEARCH, priority 2010, published 2013).

Assay: Solubility in water without and with α-cyclodextrin
Format: physicochemical
Description: Solubility of L.Zn (Scheme 1, Formula 1A) in water is limited (0.0448 gL^−1). However, this could be enhanced in presence of α-cyclodextrin (c-CD). 2.3 mg of L.Zn (Scheme 1, Formula 1A) was dissolved in 5 mL of double distilled water and stirred at 25 to 35° C. for 1 hour. […] Similar experiment was repeated in presence of α-CD. In this case 14.2 mg of α-CD was dissolved in 5 mL of double distilled water containing 2.913 mg of L.Zn (Scheme 1, Formula 1A) and this solution was stirred at 25° C. for 1 hour; while a solution with little suspended solid was obtained. This was filtered using G-4 gooch crucible. Filtrate was collected and optical density (O.D.) of the filtrate was monitored at 458 nm. Considering the complete formation of the inclusion complex (pseudorotaxane form), concentration was evaluated based on the known εLZn.α-CD value and the O.D. at 458 nm. […] L.Zn (Scheme 1, Formula 1A) present in aqueous solution in the pseudorotaxane form is being represented as L.Zn.CD in Scheme 2.

CN(C)c1ccc(N=Nc2ccc(S(=O)(=O)N3CCCNCCNCCCNCC3)cc2)cc1.O=[N+]([O-])[O-].O=[N+]([O-])[O-].[Zn+2] [L.Zn]
L.Zn present in solution in presence of α-CD (14.2 mg α-CD in 5 mL double distilled water, 25° C., O.D. at 458 nm): 0.34 g/L
solubility in water (double distilled water, stirred 1 hour, from optical density of filtrate): 0.0448 gL^−1
solubility in water (present reagent): completely soluble in water
increase in solubility in presence of α-CD (water, with versus without α-CD): ~7.5 fold
